Structures are written as SMILES.

We go through 30 compounds from ChEMBL document CHEMBL1149702, “Toward novel HIV-1 integrase binding inhibitors: molecular modeling, synthesis, and biological studies” (Bioorg Med Chem Lett, 2007).

Human immunodeficiency virus type 1 integrase, sequence (Q7ZJM1 whole entry): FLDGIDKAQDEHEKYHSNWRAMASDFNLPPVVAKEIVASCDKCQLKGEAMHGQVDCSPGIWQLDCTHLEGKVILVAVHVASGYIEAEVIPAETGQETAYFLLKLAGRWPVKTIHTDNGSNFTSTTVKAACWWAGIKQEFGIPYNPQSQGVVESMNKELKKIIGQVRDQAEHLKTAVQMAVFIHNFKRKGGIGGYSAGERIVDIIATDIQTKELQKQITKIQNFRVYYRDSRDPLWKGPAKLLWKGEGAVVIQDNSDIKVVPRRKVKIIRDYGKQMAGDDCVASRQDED

The assay has as its target Human immunodeficiency virus type 1 integrase (Human immunodeficiency virus 1, UniProt Q7ZJM1). In words: Inhibition of HIV1 integrase.
For the compound `N#CC(=Cc1ccc(-c2cccc(C(=O)O)c2)o1)c1nc2ccccc2[nH]1`, half-maximal inhibition (IC50) required 164 µM. In turn, `N#CC(=Cc1ccc(-c2cc([N+](=O)[O-])ccc2Cl)o1)c1nc2ccccc2[nH]1` registered an IC50 of 58.7 µM. Compound `O=[N+]([O-])c1cccc(-c2ccc(/C=C/c3nc4ccccc4[nH]3)o2)c1` displayed a concentration for half-maximal inhibition (IC50) of 12 µM. The same measure for `N#CC(=Cc1ccc(-c2ccc(Cl)c(C(=O)O)c2)o1)c1nc2ccccc2[nH]1`: 90.4 µM.

Turning to `N#CC(=Cc1ccc(-c2ccc(C(=O)O)cc2)o1)c1nc2ccccc2[nH]1`, the 50% inhibitory concentration (IC50) is more than 281 µM. The same measure for `Cc1ccc(C(=O)O)cc1-c1ccc(C=C(C#N)c2nc3ccccc3[nH]2)o1`: 39.8 µM. Turning to `N#CC(=Cc1ccc(-c2ccc(O)c(C(=O)O)c2)o1)c1nc2ccccc2[nH]1`, the half-inhibitory concentration (IC50) came out at 68.7 µM. The same measure for `N#CC(=Cc1ccc(-c2ccc(Cl)cc2)o1)c1nc2ccccc2[nH]1`: more than 289 µM.

For `O=[N+]([O-])c1ccccc1-c1ccc(/C=C/c2nc3ccccc3[nH]2)o1`, the concentration for half-maximal inhibition (IC50) was more than 302 µM. For the compound `Cc1c(-c2ccc(/C=C/c3nc4ccccc4[nH]3)o2)cccc1[N+](=O)[O-]`, the IC50 was more than 290 µM. On to `O=[N+]([O-])c1cc(Cl)ccc1-c1ccc(/C=C/c2nc3ccccc3[nH]2)o1`, for which the half-inhibitory concentration (IC50) was more than 273 µM. To `Cc1c(-c2ccc(C=C(C#N)c3nc4ccccc4[nH]3)o2)cccc1[N+](=O)[O-]` belongs 85.8 µM.

For the compound `N#CC(=Cc1ccc(-c2ccccc2[N+](=O)[O-])o1)c1nc2ccccc2[nH]1`, the IC50 was more than 281 µM.

Regarding `C/C(=C\c1ccc(-c2ccc(Cl)cc2[N+](=O)[O-])o1)c1nc2ccccc2[nH]1`, the half-maximal inhibitory concentration (IC50) is more than 263 µM. `FC(F)(F)c1cccc(Cl)c1-c1ccc(/C=C/c2nc3ccccc3[nH]2)o1`: the IC50 is more than 257 µM.

On to `N#C/C(=C\c1ccc(-c2c(Cl)cccc2C(F)(F)F)o1)c1nc2ccccc2o1`, for which the 50% inhibitory concentration (IC50) is more than 241 µM. To `N#CC(=Cc1ccc(-c2ccc(C(=O)O)c(O)c2)o1)c1nc2ccccc2[nH]1` belongs 70.3 µM; to `N#CC(=Cc1ccc(-c2ccc(F)cc2C(=O)O)o1)c1nc2ccccc2[nH]1`, more than 268 µM. To `N#CC(=Cc1ccc(-c2cccc([N+](=O)[O-])c2)o1)c1nc2ccccc2[nH]1` belongs more than 281 µM; to `N#CC(=Cc1ccc(-c2cc(C(F)(F)F)ccc2Cl)o1)c1nc2ccccc2[nH]1`, 31.3 µM; to `N#C/C(=C\c1ccc(-c2c(Cl)cccc2C(F)(F)F)o1)c1nc2ccccc2s1`, more than 232 µM. The same measure for `N#C/C(=C\c1ccc(-c2ccc(Cl)cc2[N+](=O)[O-])o1)c1nc2ccccc2s1`: more than 245 µM. `N#C/C(=C\c1ccc(-c2cccc([N+](=O)[O-])c2)o1)c1nc2ccccc2s1` yielded an IC50 of more than 268 µM.

For the compound `Cc1ccc2[nH]c(C(C#N)=Cc3ccc(-c4ccc(Cl)cc4C(=O)O)o3)nc2c1`, half-maximal inhibition (IC50) was put at 36.2 µM. For the compound `COc1c(C)cc(-c2ccc(C=C(C#N)c3nc4ccccc4[nH]3)o2)cc1C`, the half-inhibitory concentration (IC50) is more than 271 µM.

In turn, `CC(C)(C)OC(=O)Nc1ccc(-c2ccc(C=C(C#N)c3nc4ccccc4[nH]3)o2)cc1` registered an IC50 of more than 235 µM. With `NC(=O)/C(=C\c1ccc(-c2ccc(Cl)cc2[N+](=O)[O-])o1)c1nc2ccccc2[nH]1`, the half-inhibitory concentration (IC50) is more than 244 µM. Regarding `N#C/C(=C\c1ccc(-c2cccc([N+](=O)[O-])c2)o1)c1nc2ccccc2o1`, the IC50 is more than 280 µM. On to `COc1c(C)cc(-c2ccc(/C=C/c3nc4ccccc4[nH]3)o2)cc1C`, for which the half-maximal inhibitory concentration (IC50) is more than 291 µM. The same measure for `COc1ccc(-c2ccc(C=C(C#N)c3nc4ccccc4[nH]3)o2)cn1`: more than 292 µM.

The IC50 is the point on the concentration scale where inhibition reaches its midpoint.
